From patent publication US7306789B2, “Method of stimulating hair growth using benzopyrans” (Warner-Lambert Company, LLC, priority 2002, dated 2007)
One block for each compound: values may come before it.

How the values were obtained:
[1] = tested on: Female C3H/HeN mice; test: Mouse hair growth model (topical administration); assay type: in vivo; conditions: for Day on which 50% incidence of hair growth occurred: topical
Description: The effect of the benzopyran compound (3S,4R)-3,4-dihydro-4-(2,3-dihydro-2-methyl-3-oxopyridazin-6-yl)oxy-3-hydroxy-6-(3-hydroxyphenyl)sulphonyl-2,2,3-trimethyl-2H-benzo[b]pyran (Compound 1) on hair growth was evaluated by topical administration of the compound to mice. Compound 1 may be made according to the methods described in U.S. Pat. Nos. 5,912,244 and 6,071,938.
Female C3H/HeN mice, 42-46 days old (Charles River Laboratories, Raleigh, N.C.) were used for the study. The hair follicles of mice at this age are in the second telogen phase, which usually lasts from 6 to 9 weeks, providing a wide enough window to test compounds for their ability to induce earlier onset of anagen. Only mice with pink skin, a visual indication of the telogen phase, were selected for inclusion in the study.
Test compounds, including Compound 1, the potassium channel opener minoxidil (marketed as Rogaine® containing 2% minoxidil), and cyclosporin A, were dissolved in a vehicle consisting of propylene glycol (30%) and ethanol (70%). A test compound dissolved in vehicle, or a vehicle control (30/70 propylene glycol/ethanol, unless otherwise specified) was applied topically to the clipped dorsal region of the mice in each test group (7-10 mice) in a volume of 20 μl/cm^2. Treatments were applied once or twice daily, 5 days/week.
The treatment area was observed and graded for signs of hair growth and local skin irritation. The hair growth response was quantified by recording, for each animal, the day on which signs of hair growth first appeared over the treated area. The first sign of anagen was the darkening of skin color as melanocytes in the follicles started to synthesize melanin in preparation for the production of pigmented hairs. The response time was measured as the number of days following initiation of treatment when hair growth was present in 50% of the mice in a given group.

[2] = In vivo clearance in human; conditions: low exposure to unchanged drug following oral or systemic administration
Text: (§1) The compound is cleared by conjugation to produce the glucuronide and sulfate metabolites. The compound and its metabolites are rapidly taken up by the liver and excreted in the bile. Thus, following topical administration, any absorbed benzopyran is subject to high hepatic extraction, and thus low systemic exposure.

[3] = In vivo clearance in rat; conditions: low exposure to unchanged drug following oral or systemic administration
Text: as §1

[4] = In vivo clearance in dog; conditions: low exposure to unchanged drug following oral or systemic administration
Text: as §1

[5] = In vitro metabolism experiments (conjugation); assay type: in vitro ADME
Text: as §1

Compound: Nc1cc(N2CCCCC2)nc(N)[n+]1[O-] [Minoxidil, minoxidil, reference compound]
Day on which 50% incidence of hair growth occurred ([1]; dose 2.5%, 1 dose/day, duration 1 week, study 13 (vehicle 56)): 53 days
Day on which 50% incidence of hair growth occurred ([1]; dose 2.5%, 1 dose/day, duration 4 weeks, study 13 (vehicle 58)): 39 days
Day on which 50% incidence of hair growth occurred ([1]; dose 5%, 1 dose/day, duration 1 week, study 13 (vehicle 56)): 56 days
Day on which 50% incidence of hair growth occurred ([1]; dose 5%, 1 dose/day, duration 4 weeks, study 13 (vehicle 58)): 37 days

Clearance [2]: rapid clearance
Clearance [3]: rapid clearance
Clearance [4]: rapid clearance
Rate of conjugation [5]: high
Behaviour of drug on the skin ([1]; concentrations greater than 1%, vehicle propylene glycol/ethanol): precipitation of drug on the skin
Compound: Cn1nc(O[C@@H]2c3cc(S(=O)(=O)c4cccc(O)c4)ccc3OC(C)(C)[C@@]2(C)O)ccc1=O [Compound 1, (3S,4R)-3,4-dihydro-4-(2,3-dihydro-2-methyl-3-oxopyridazin-6-yl)oxy-3-hydroxy-6-(3-hydroxyphenyl)sulphonyl-2,2,3-trimethyl-2H-benzo[b]pyran]
Quality of hair growth over the treated area ([1]; all cases of hair growth stimulation): full and thick hair growth
Hair growth stimulation ([1]; applied topically at 0.3% or 1% once or twice daily for five days or up to 4 weeks): stimulated hair growth
Efficacy relative to lower doses ([1]; concentrations greater than 1%): less efficacious than lower doses
Hair growth ([1]; concentrations lower than 0.3% (0.1% to 0.03%)): not observed
Local irritation or other adverse effects ([1]; mice treated for 2 weeks with 5%): No local irritation or other adverse effects
Day on which 50% incidence of hair growth occurred ([1]; dose 0.03%, 1 dose/day, duration 1 week, study 5 (vehicle >35)): >35 days
Day on which 50% incidence of hair growth occurred ([1]; dose 0.03%, 1 dose/day, duration 1 week, study 6 (vehicle >35)): >35 days
Day on which 50% incidence of hair growth occurred ([1]; dose 0.03%, 1 dose/day, duration 1 week, study 7 (vehicle >35)): >35 days
Day on which 50% incidence of hair growth occurred ([1]; dose 0.03%, 1 dose/day, duration 1 week, study 9 (vehicle >35)): >35 days
Day on which 50% incidence of hair growth occurred ([1]; dose 0.1%, 1 dose/day, duration 1 week, study 5 (vehicle >35)): >35 days
Day on which 50% incidence of hair growth occurred ([1]; dose 0.1%, 1 dose/day, duration 1 week, study 6 (vehicle >35)): >35 days
Day on which 50% incidence of hair growth occurred ([1]; dose 0.3%, 1 dose/day, duration 1 week, study 4 (vehicle 25)): 11 days
Day on which 50% incidence of hair growth occurred ([1]; dose 0.3%, 1 dose/day, duration 1 week, study 5 (vehicle >35)): >35 days
Day on which 50% incidence of hair growth occurred ([1]; dose 0.3%, 1 dose/day, duration 1 week, study 6 (vehicle >35)): >35 days
Day on which 50% incidence of hair growth occurred ([1]; dose 0.3%, 1 dose/day, duration 1 week, study 7 (vehicle >35)): 14 days
Day on which 50% incidence of hair growth occurred ([1]; dose 0.3%, 1 dose/day, duration 1 week, study 9 (vehicle >35)): 16 days
Day on which 50% incidence of hair growth occurred ([1]; dose 0.3%, 1 dose/day, duration 1 week, study 10 (vehicle >35)): 21 days
Day on which 50% incidence of hair growth occurred ([1]; dose 0.3%, 1 dose/day, duration 1 week, study 11 (vehicle 56)): 25 days
Day on which 50% incidence of hair growth occurred ([1]; dose 0.3%, 1 dose/day, duration 1 week, study 12 (vehicle >35)): >35 days
Day on which 50% incidence of hair growth occurred ([1]; dose 0.3%, 1 dose/day, duration 1 week, study 13 (vehicle 56)): 28 days
Day on which 50% incidence of hair growth occurred ([1]; dose 0.3%, 1 dose/day, duration 4 weeks, study 10 (vehicle >35)): 23 days
Day on which 50% incidence of hair growth occurred ([1]; dose 0.3%, 1 dose/day, duration 4 weeks, study 12 (vehicle >35)): 16 days
Day on which 50% incidence of hair growth occurred ([1]; dose 0.3%, 1 dose/day, duration 4 weeks, study 13 (vehicle 56)): 35 days
Day on which 50% incidence of hair growth occurred ([1]; dose 1%, 1 dose/day, duration 1 week, study 3 (vehicle 21)): 14 days
Day on which 50% incidence of hair growth occurred ([1]; dose 1%, 1 dose/day, duration 1 week, study 4 (vehicle 25)): 11 days
Day on which 50% incidence of hair growth occurred ([1]; dose 1%, 1 dose/day, duration 1 week, study 5 (vehicle >35)): >35 days
Day on which 50% incidence of hair growth occurred ([1]; dose 1%, 1 dose/day, duration 1 week, study 8 (vehicle >35)): 21 days
Day on which 50% incidence of hair growth occurred ([1]; dose 1%, 1 dose/day, duration 1 week, study 9 (vehicle >35)): 28 days
Day on which 50% incidence of hair growth occurred ([1]; dose 1%, 1 dose/day, duration 1 week, study 10 (vehicle >35)): >35 days
Day on which 50% incidence of hair growth occurred ([1]; dose 1%, 1 dose/day, duration 1 week, study 12 (vehicle >35)): 16 days
Day on which 50% incidence of hair growth occurred ([1]; dose 1%, 1 dose/day, duration 4 weeks, study 10 (vehicle >35)): >35 days
Day on which 50% incidence of hair growth occurred ([1]; dose 1%, 1 dose/day, duration 4 weeks, study 12 (vehicle >35)): 18 days
Day on which 50% incidence of hair growth occurred ([1]; dose 1%, 2 doses/day, duration 2 weeks, study 1 (vehicle >35)): 25 days
Day on which 50% incidence of hair growth occurred ([1]; dose 1%, 2 doses/day, duration 2 weeks, study 2 (vehicle >35)): 28 days
